Experimental data as given in patent US5880130A, “4,6-dianilino-pyrimidine derivatives, their preparation and their use as tyrosine kinase inhibitors” (Zeneca Limited, priority 1993, dated 1999).

How the values were obtained:
[1] = test system: human naso-pharyngeal cancer cell line KB; assay: Test (b): inhibition of EGF-stimulated growth of the cancer cell line KB; type: cell-based; details: 72 h, KB cell growth with EGF (10 ng/ml), 3 days, MTT
Protocol: (b) An in vitro assay which determines the ability of a test compound to inhibit the EGF-stimulated growth of the human naso-pharyngeal cancer cell line KB.
KB cells were seeded into wells at a density of 1×10^4 -1.5×10^4 cells per well and grown for 24 hours in DMEH supplemented with 5% FCS (charcoal-stripped). Cell growth was determined after incubation for 3 days by the extent of metabolism of MTT tetrazolium dye to furnish a bluish colour. Cell growth was then determined in the presence of EGF (10 ng/ml) or in the presence of EGF (10 ng/ml) and a test compound at a range of concentrations. An IC50 value could then be calculated.

[2] = molecular target: T1, EGF receptor tyrosine kinase (Homo sapiens, UniProt P00533); assay: Test (a): in vitro inhibition of EGF receptor tyrosine kinase; type: biochemical, human (A-431 cells, derived from human vulval carcinoma); details: A-431 cell enzyme, [γ-32P]ATP/peptide phosphorylation, 25° C. 10 minutes
T1 construct: Receptor tyrosine kinase was obtained in partially purified form from A-431 cells; endogenous in cells; host or cells: A-431 cells (human vulval carcinoma); Triton X-100 solubilised membrane fraction
Protocol: (a) An in vitro assay which determines the ability of a test compound to inhibit the enzyme EGF receptor tyrosine kinase. Receptor tyrosine kinase was obtained in partially purified form from A-431 cells (derived from human vulval carcinoma) by procedures related to those described by Carpenter et al., J. Biol. Chem., 1979, 254, 4884, Cohen et al., J. Biol. Chem., 1982, 257, 1523 and by Braun et al., J. Biol. Chem., 1984, 259, 2051.
A-431 cells were grown to confluence using Dulbecco's modified Eagle's medium (DMEM) containing 5% fetal calf serum (FCS). The obtained cells were homogenised in a hypotonic borate/EDTA buffer at pH 10.1. The homogenate was centrifuged at 400 g for 10 minutes at 0°-4° C. The supernatant was centrifuged at 25,000 g for 30 minutes at 0°-4° C. […]
The test compound/EGF mixture solution (5 μl) was added to the test enzyme solution (10 μl) and the mixture was incubated at 0-4° C. for 30 minutes. […] Radioactivity present in the filter paper was measured using a liquid scintillation counter (Sequence A). […]
Receptor tyrosine kinase inhibition was calculated as follows: [formula]
The extent of inhibition was then determined at a range of concentrations of test compound to give an IC50 value.

liver hepatocyte growth = assay: Test (c): inhibition of TGFα-stimulated liver hepatocyte growth in rats; type: in vivo; details: Rattus norvegicus, male rats, usually oral, TGFα 400 μg/kg subcutaneously, BrdU uptake, approximate ED50
Protocol: (c) An in vivo assay in a group of male rats which determines the ability of a test compound (usually administered orally as a ball-milled suspension in 0.5% polysorbate) to inhibit the stimulation of liver hepatocyte growth caused by the administration of the growth factor TGFα (400 μg/kg subcutaneously, usually dosed twice, 3 and 7 hours respectively after the administration of the test compound).
In a control group of rats, the administration of TGFα causes on average a 5-fold stimulation of liver hepatocyte growth.
Cell-growth in the control and test animals is determined as follows:
On the morning of the day after the dosing of the test compound (or 0.5% polysorbate in the control group), the animals are dosed with bromodeoxyuridine (BrdU; 100 mg/kg intraperitoneally). The animals are killed four hours later and the livers are excised. […] Further tests were carried out using a range of doses of the test compounds to allow the calculation of an approximate ED50 value for the inhibition of liver hepatocyte proliferation as determined by inhibition of the uptake of BrdU.

[3] = test system: another carcinoma which does not express EGF receptor tyrosine kinase; details: Toi et al. 1990; cited from earlier work
[4] = test system: transplanted human mammary carcinoma which expresses EGF receptor tyrosine kinase; details: athymic nude mice; Toi et al. 1990; cited from earlier work

T1 sequence (P00533 25-1210): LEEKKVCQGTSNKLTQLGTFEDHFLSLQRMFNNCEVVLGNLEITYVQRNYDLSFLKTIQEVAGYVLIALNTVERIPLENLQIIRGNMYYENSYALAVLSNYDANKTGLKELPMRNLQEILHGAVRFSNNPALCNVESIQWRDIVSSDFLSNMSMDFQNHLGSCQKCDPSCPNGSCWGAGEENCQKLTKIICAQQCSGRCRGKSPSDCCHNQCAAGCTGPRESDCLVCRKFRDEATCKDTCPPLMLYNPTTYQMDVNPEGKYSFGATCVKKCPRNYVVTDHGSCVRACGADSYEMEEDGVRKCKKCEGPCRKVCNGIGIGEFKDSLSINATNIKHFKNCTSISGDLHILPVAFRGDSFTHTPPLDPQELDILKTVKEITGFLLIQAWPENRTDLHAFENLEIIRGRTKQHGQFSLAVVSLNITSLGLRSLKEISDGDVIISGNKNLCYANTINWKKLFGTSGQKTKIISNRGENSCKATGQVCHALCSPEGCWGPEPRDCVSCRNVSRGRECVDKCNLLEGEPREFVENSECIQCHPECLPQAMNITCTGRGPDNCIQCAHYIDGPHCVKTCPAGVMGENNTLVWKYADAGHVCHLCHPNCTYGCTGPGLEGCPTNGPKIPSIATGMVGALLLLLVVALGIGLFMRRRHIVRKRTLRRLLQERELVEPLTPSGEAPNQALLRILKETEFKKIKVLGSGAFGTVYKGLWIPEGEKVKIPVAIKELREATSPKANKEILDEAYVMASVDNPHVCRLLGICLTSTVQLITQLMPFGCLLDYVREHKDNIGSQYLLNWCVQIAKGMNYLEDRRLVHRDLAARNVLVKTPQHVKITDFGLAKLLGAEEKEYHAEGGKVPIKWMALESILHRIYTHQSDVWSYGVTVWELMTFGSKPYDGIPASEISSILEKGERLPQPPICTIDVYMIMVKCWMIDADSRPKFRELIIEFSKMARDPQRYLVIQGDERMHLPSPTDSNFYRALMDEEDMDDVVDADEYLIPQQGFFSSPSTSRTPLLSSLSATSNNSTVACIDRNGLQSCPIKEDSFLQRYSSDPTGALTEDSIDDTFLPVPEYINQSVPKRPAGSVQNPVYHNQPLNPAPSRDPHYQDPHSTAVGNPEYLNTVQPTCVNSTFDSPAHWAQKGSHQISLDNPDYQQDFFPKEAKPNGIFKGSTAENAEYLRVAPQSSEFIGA

| Structure (SMILES) | IC50 [1] | IC50 [2] | ED50 (liver hepatocyte growth) | effect on growth of another carcinoma which does not express EGF receptor tyrosine kinase [3] | effect on growth of transplanted human mammary carcinoma expressing EGF receptor tyrosine kinase [4] |
| --- | --- | --- | --- | --- | --- |
| Cc1cccc(Nc2cc(Nc3cccc(C)c3)ncn2)c1 [4,6-di-(3'-methylanilino)pyrimidine] | 1100 nM | 240 nM | < 12.5 mg/kg | – | – |
| Cc1cccc(Nc2cc(Nc3ccc(OCCO)cc3)ncn2)c1 [4-[4'-(2-hydroxyethoxy)anilino]6-(3'-methylanilino)pyrimidine] | 1070 nM | – | < 12.5 mg/kg | – | – |
| Cc1cccc(Nc2cc(Nc3ccc(OCC(O)CN(C)C)cc3)ncn2)c1 (stereo not drawn) [4-[4'-(3-dimethylamino-2-hydroxypropoxy)anilino]6-(3'-methylanilino)pyrimidine] | 310 nM | 10 nM | – | – | – |
| O=CN/C=C/c1cc(O)ccc1O [erbstatin] | – | – | – | without effect on the growth | specifically attenuates the growth |
